{"source": "ChEMBL document CHEMBL1158611", "about": "“Trichoderins, novel aminolipopeptides from a marine sponge-derived Trichoderma sp., are active against dormant mycobacteria” (2010)", "key": {"[1]": {"system": "Mycobacterium tuberculosis", "experiment": "Antimycobacterial activity against Mycobacterium bovis BCG under aerobic condition", "format": "functional", "conditions": "variant bovis BCG"}, "[2]": {"system": "Mycobacterium tuberculosis", "experiment": "Antimycobacterial activity against Mycobacterium bovis BCG under dormancy-inducing hypoxic condition", "format": "functional", "conditions": "variant bovis BCG"}}, "note": "*1 amine or outer side, *2 acyl side, *3 side chain or, on linkers, in order; H or OH if unused. Where a SMILES comes first, the peptide text is derived from it. [ ]: non-standard residue; d: D form. The star is where a group is joined. X2 = CCC(=O)C[C@@H](O)C[C@@H](C)C[C@H](N[*:1])C(=O)[*:2]; X1 = CCC(=O)/C=C/C[C@@H](C)C[C@H](N[*:1])C(=O)[*:2]; Alaψ(CH2NMeCH2CH2OH) = C[C@@H](CN(C)CCO)N*; Decanoyl(2R-Me) = CCCCCCCC[C@@H](C)C(=O)*; Aib = CC(C)(N)C(=O)O", "data": [{"smiles": "NNC(=O)c1ccncc1", "note": "[ISONIAZID]", "values": [{"measurement": "MIC", "setting": "[1]", "value": 0.03, "unit": "µg/mL"}, {"measurement": "MIC", "setting": "[2]", "value": "> 100", "unit": "µg/mL"}]}, {"smiles": "CCCCCCCC[C@@H](C)C(=O)N1CCC[C@H]1C(=O)N[C@@H](C[C@H](C)C/C=C/C(=O)CC)C(=O)NC(C)(C)C(=O)NC(C)(C)C(=O)N[C@H](C(=O)N[C@H](C(=O)NC(C)(C)C(=O)NC(C)(C)C(=O)N[C@@H](C)CN(C)CCO)C(C)C)[C@@H](C)CC", "note": "[TRICHODERIN A1] ({Decanoyl(2R-Me)}-P[X1][Aib][Aib]IV[Aib][Aib]-{Alaψ(CH2NMeCH2CH2OH)})", "values": [{"measurement": "MIC", "setting": "[1]", "value": 0.16, "unit": "µg/mL"}, {"measurement": "MIC", "setting": "[2]", "value": 0.16, "unit": "µg/mL"}]}, {"smiles": "CCCCCCCC[C@@H](C)C(=O)N1CCC[C@H]1C(=O)N[C@@H](C[C@H](C)C[C@H](O)CC(=O)CC)C(=O)NC(C)(C)C(=O)NC(C)(C)C(=O)N[C@H](C(=O)N[C@H](C(=O)NC(C)(C)C(=O)NC(C)(C)C(=O)N[C@@H](C)CN(C)CCO)C(C)C)[C@@H](C)CC", "note": "[TRICHODERIN A] ({Decanoyl(2R-Me)}-P[X2][Aib][Aib]IV[Aib][Aib]-{Alaψ(CH2NMeCH2CH2OH)})", "values": [{"measurement": "MIC", "setting": "[1]", "value": 0.02, "unit": "µg/mL"}, {"measurement": "MIC", "setting": "[2]", "value": 0.02, "unit": "µg/mL"}]}, {"smiles": "CCCCCCCC[C@@H](C)C(=O)N1CCC[C@H]1C(=O)N[C@@H](C[C@H](C)C[C@H](O)CC(=O)CC)C(=O)NC(C)(C)C(=O)NC(C)(C)C(=O)N[C@H](C(=O)N[C@H](C(=O)NC(C)(C)C(=O)NC(C)(C)C(=O)N[C@@H](C)CN(C)CCO)C(C)C)C(C)C", "note": "[TRICHODERIN B] ({Decanoyl(2R-Me)}-P[X2][Aib][Aib]VV[Aib][Aib]-{Alaψ(CH2NMeCH2CH2OH)})", "values": [{"measurement": "MIC", "setting": "[1]", "value": 0.02, "unit": "µg/mL"}, {"measurement": "MIC", "setting": "[2]", "value": 0.02, "unit": "µg/mL"}]}]}
